# Measurements published in patent publication US20230407243A1, “GENETIC PLATFORM TO INVESTIGATE THE FUNCTIONS OF BACTERIAL DRUG EFFLUX PUMPS” (priority 2022, published 2023).
# “Also recorded” adds a separate entry of the source.
# Columns and labels:
# Format in all cases: cell-based, Escherichia coli
# [1] = test system: EKO-35 strains with integrated RND tripartite efflux pumps (AcrB, AcrEF, AcrD, and MdtEF) with pGDP2:emrE or empty pGDP-2; assay: Efflux pump interplay MIC profiling (pGDP2:emrE); details: for MIC / Fold Change from EKO-35: Pore −
# [2] = test system: EKO-35-Pore strains with integrated AcrB, AcrEF, AcrD, MdtEF with pGDP2:emrE or empty pGDP-2; assay: Efflux pump interplay MIC profiling (pGDP2:emrE), porinated; details: for MIC / Fold Change from EKO-35: Pore +
# Source text: This plasmid enables single-copy genomic integration of a selected gene through integration into the nonessential araC gene within the arabinose operon (Cox, G. et al., 2022). All E. coli genes were amplified from E. coli BW25113 genomic DNA, and mexCD was amplified from P. aeruginosa PAO1, using a high-fidelity polymerase, followed by ligation into pINT2. Successful clones were verified using PCR (Primers: pLac-Fwd/pINT-Rev, Table 4) and confirmed via Sanger sequencing at The Centre for Applied Genomics (TCAG) (The Hospital for Sick Children) and the AAC (University of Guelph). For the interplay studies, this process was repeated using the pGDP2 plasmid (Cox, G. et al., 2022).
# To enable comparison between efflux production in different genetic backgrounds, each efflux pump-encoding gene was also integrated into the genome of the wild-type BW25113 strain, the single gene deletion mutant from the Keio Collection, and EKO-35. Strains of interest were propagated on LB agar at 37° C. Cell inoculum was prepared using the colony resuspension method and applied to a 96-well well plate (VWR) in technical duplicate, and the minimum inhibitory concentrations were determined according to Clinical & Laboratory Standards Institute (CLSI) protocols in MHB II (Patel J. B. et al, 2015). The plates were incubated for 18 h (Multitron Shaker, Infors HT) at 37° C. with aeration at 900 rpm. The plates were equilibrated to room temperature before the OD600 nm was measured using a BioTek Synergy H1 microplate reader. For interplay profiling, blank subtracted OD600 nm values >0.1 were considered to represent growth.
# To investigate, the EKO-35-Pore strains were profiled using the same approach.
# [3] = test system: EKO-35 porinated strain expressing acrD; assay: Checkerboard synergy (FICI), porinated strain; details: for interaction of PAβN in combination with the labelled antibiotic (FICI): acrD expressed in the porinated strain
# Procedure, shortened: (§1)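 Interaction of PAβN or NMP with antibiotics is scored as FICI = CA/MICA + CB/MICB, from MICs (no growth, OD600) in MHB II checkerboard microdilution following CLSI. Solvent controls accompany every plate.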
# [4] = test system: EKO-35 porinated strain expressing acrF (AcrEF); assay: Checkerboard synergy (FICI), porinated strain
# Procedure, shortened: as §1
# [5] = EKO-35 acrD Pore, PAβN + antibiotic
# [6] = EKO-35 acrD Pore, antibiotic alone (PAβN checkerboard)
# [7] = EKO-35 acrD Pore, antibiotic in combination with PAβN
# [8] = EKO-35 acrD Pore, NMP + antibiotic
# [9] = strain EKO-35 acrD Pore, NMP + antibiotic
# [10] = EKO-35 acrEF Pore, PAβN + antibiotic
# [11] = strain EKO-35 acrEF Pore, NMP + antibiotic
structure (smiles),measurement,setting,value
CN(C)c1ccc(O)c2c1C[C@H]1C[C@H]3[C@H](N(C)C)C(O)=C(C(N)=O)C(=O)[C@@]3(O)C(O)=C1C2=O [minocycline],MIC,[1]; strain EKO-35,1.25 µg/mL
same,Fold Change from EKO-35,[1]; strain EKO-35 pEmrE,1
same,MIC,[1]; strain EKO-35 pEmrE,1.25 µg/mL
same,Fold Change from EKO-35,[1]; strain acrB pEmrE,4
same,MIC,[1]; strain acrB pEmrE,5 µg/mL
same,Fold Change from EKO-35,[1]; strain acrB,4
same,MIC,[1]; strain acrB,5 µg/mL
same,Fold Change from EKO-35,[1]; strain acrD pEmrE,2
same,MIC,[1]; strain acrD pEmrE,2.5 µg/mL
same,Fold Change from EKO-35,[1]; strain acrD,2
same,MIC,[1]; strain acrD,2.5 µg/mL
same,Fold Change from EKO-35,[1]; strain acrEF pEmrE,4
same,MIC,[1]; strain acrEF pEmrE,5 µg/mL
same,Fold Change from EKO-35,[1]; strain acrEF,2
same,MIC,[1]; strain acrEF,2.5 µg/mL
same,Fold Change from EKO-35,[1]; strain mdtEF pEmrE,2
same,MIC,[1]; strain mdtEF pEmrE,2.5 µg/mL
same,Fold Change from EKO-35,[1]; strain mdtEF,2
same,MIC,[1]; strain mdtEF,2.5 µg/mL
same,MIC,[2]; strain EKO-35,0.63 µg/mL
same,Fold Change from EKO-35,[2]; strain EKO-35 pEmrE,1
same,MIC,[2]; strain EKO-35 pEmrE,0.63 µg/mL
same,Fold Change from EKO-35,[2]; strain acrB pEmrE,4
same,MIC,[2]; strain acrB pEmrE,2.5 µg/mL
same,Fold Change from EKO-35,[2]; strain acrB,4
same,MIC,[2]; strain acrB,2.5 µg/mL
same,Fold Change from EKO-35,[2]; strain acrD pEmrE,2
same,Fold Change from EKO-35,[2]; strain acrD,2
same,Fold Change from EKO-35,[2]; strain acrEF pEmrE,2
same,Fold Change from EKO-35,[2]; strain acrEF,2
same,Fold Change from EKO-35,[2]; strain mdtEF pEmrE,2
same,Fold Change from EKO-35,[2]; strain mdtEF,2
CO[C@@H]1[C@@H](OC(N)=O)[C@@H](O)[C@H](Oc2ccc3c(O)c(NC(=O)c4ccc(O)c(CC=C(C)C)c4)c(=O)oc3c2C)OC1(C)C [novobiocin],Effect,[3]; [5],Additive
same,FICI,[3]; [5],0.563
same,MICb Alone,[3]; [6],16 µg/mL
same,MICb Combined,[3]; [7],1 µg/mL
same,interaction of PAβN in combination with the labelled antibiotic (FICI),[3],synergy was lost
same,interplay of EmrE with tripartite efflux pumps on resistance,"[1]; EKO-35, AcrB, AcrEF, AcrD, MdtEF combined with pEmrE",Interplay was not observed; also recorded: did not observe synergy
same,extrusion by EmrE,[1]; negative controls,not extruded by EmrE
same,MIC,[1]; strain EKO-35,0.781 µg/mL
same,Fold Change from EKO-35,[1]; strain EKO-35 pEmrE,1
same,MIC,[1]; strain EKO-35 pEmrE,0.781 µg/mL
same,Fold Change from EKO-35,[1]; strain acrB pEmrE,512
same,MIC,[1]; strain acrB pEmrE,400 µg/mL
same,Fold Change from EKO-35,[1]; strain acrB,512
same,MIC,[1]; strain acrB,400 µg/mL
same,Fold Change from EKO-35,[1]; strain acrD pEmrE,64
same,MIC,[1]; strain acrD pEmrE,50 µg/mL
same,Fold Change from EKO-35,[1]; strain acrD,128
same,MIC,[1]; strain acrD,100 µg/mL
same,Fold Change from EKO-35,[1]; strain acrEF pEmrE,64
same,MIC,[1]; strain acrEF pEmrE,50 µg/mL
same,Fold Change from EKO-35,[1]; strain acrEF,128
same,MIC,[1]; strain acrEF,100 µg/mL
same,Fold Change from EKO-35,[1]; strain mdtEF pEmrE,8
same,MIC,[1]; strain mdtEF pEmrE,6.25 µg/mL
same,Fold Change from EKO-35,[1]; strain mdtEF,16
same,MIC,[1]; strain mdtEF,12.5 µg/mL
same,interplay of EmrE with tripartite efflux pumps on resistance,"[2]; EKO-35-Pore, AcrB, AcrEF, AcrD, MdtEF combined with pEmrE",Interplay was not observed
same,MIC,[2]; strain EKO-35,0.391 µg/mL
same,Fold Change from EKO-35,[2]; strain EKO-35 pEmrE,1
same,MIC,[2]; strain EKO-35 pEmrE,0.391 µg/mL
same,Fold Change from EKO-35,[2]; strain acrB pEmrE,256
same,MIC,[2]; strain acrB pEmrE,100 µg/mL
same,Fold Change from EKO-35,[2]; strain acrB,256
same,MIC,[2]; strain acrB,100 µg/mL
same,Fold Change from EKO-35,[2]; strain acrD pEmrE,16
same,Fold Change from EKO-35,[2]; strain acrD,64
same,MIC,[2]; strain acrD,25 µg/mL
same,Fold Change from EKO-35,[2]; strain acrEF pEmrE,32
same,Fold Change from EKO-35,[2]; strain acrEF,32
same,Fold Change from EKO-35,[2]; strain mdtEF pEmrE,4
same,MIC,[2]; strain mdtEF pEmrE,1.56 µg/mL
same,Fold Change from EKO-35,[2]; strain mdtEF,8
same,MIC,[2]; strain mdtEF,3.13 µg/mL
Cc1onc(-c2ccccc2)c1C(=O)N[C@@H]1C(=O)N2[C@@H]1SC(C)(C)[C@@H]2C(=O)O [oxacillin],Effect,[3]; [8],Additive
same,FICI,[3]; [8],0.750
same,Effect,[3]; [5],Synergistic
same,FICI,[3]; [5],0.500
same,MICb Alone,[3]; [6],4 µg/mL
same,MICb Combined,[3]; [7],1 µg/mL
same,interaction of PAβN in combination with the labelled antibiotic (FICI),[3],still observed
same,Effect,[3]; [9],Additive (additive (FICI >0.5-1.0))
same,FICI,[3]; [9],0.750
same,MICb Alone,"[3]; strain EKO-35 acrD Pore, antibiotic alone",2 µg/mL
same,MICb Combined,"[3]; strain EKO-35 acrD Pore, antibiotic in combination with NMP",0.5 µg/mL
same,FICI,"[4]; EKO-35 acrEF Pore, NMP + antibiotic",1.000
same,Effect,[4]; [10],Synergistic
same,FICI,[4]; [10],0.500
same,MICb Alone,"[4]; EKO-35 acrEF Pore, antibiotic alone (PAβN checkerboard)",4 µg/mL
same,MICb Combined,"[4]; EKO-35 acrEF Pore, antibiotic in combination with PAβN",1 µg/mL
same,Effect,[4]; [11],— (indifferent (FICI >1.0))
same,FICI,[4]; [11],1.000
same,MICb Alone,"[4]; strain EKO-35 acrEF Pore, antibiotic alone",2 µg/mL
same,MICb Combined,"[4]; strain EKO-35 acrEF Pore, antibiotic in combination with NMP",1 µg/mL
